The NIST ThermoML archive (doi:10.1021/je400535t)
Where “and” joins values, the source holds several entries; their conditions need not be identical. Equal entries are not always repeated.

Assay: molar heat capacity at constant pressure
Conditions: 101.33 kPa, Crystal, Small (less than 1 g) adiabatic calorimetry

O=C([O][Sb]([O]C(=O)C12CC3CC(CC(C3)C1)C2)([c]1ccccc1)([c]1ccccc1)[c]1ccccc1)C12CC3CC(CC(C3)C1)C2
Conditions	molar heat capacity at constant pressure
139.88 K	353.9 J/K/mol
140 K	356 J/K/mol
141.88 K	360.2 J/K/mol
143.86 K	365 J/K/mol
145.81 K	369.5 J/K/mol
147.78 K	373.9 J/K/mol
149.76 K	378.3 J/K/mol
150 K	378.8 J/K/mol
152.23 K	383.7 J/K/mol
155.2 K	391.3 J/K/mol
158.16 K	397.8 J/K/mol
160 K	401.7 J/K/mol
161.11 K	404.3 J/K/mol
164.04 K	411.2 J/K/mol
166.97 K	417.6 J/K/mol
169.88 K	424.5 J/K/mol
170 K	424.6 J/K/mol
172.78 K	430.6 J/K/mol
175.68 K	437 J/K/mol
178.57 K	443.5 J/K/mol
180 K	447.4 J/K/mol
181.43 K	450.4 J/K/mol
184.29 K	457.3 J/K/mol
187.14 K	463.9 J/K/mol
189.9 K	470 J/K/mol
190 K	470.3 J/K/mol
192.72 K	477.1 J/K/mol
195.53 K	483.7 J/K/mol
198.33 K	489.7 J/K/mol
200 K	493.6 J/K/mol
201.12 K	496.2 J/K/mol
203.89 K	503 J/K/mol
209.43 K	515.8 J/K/mol
210 K	517.7 J/K/mol
212.2 K	523 J/K/mol
214.96 K	529.5 J/K/mol
217.72 K	536.6 J/K/mol
220 K	542.3 J/K/mol
220.47 K	543.8 J/K/mol
223.23 K	550 J/K/mol
225.98 K	556.9 J/K/mol
228.73 K	564.4 J/K/mol
230 K	567.3 J/K/mol
231.48 K	571.2 J/K/mol
234.15 K	576.4 J/K/mol
236.89 K	583.6 J/K/mol
239.63 K	590.6 J/K/mol
240 K	591.6 J/K/mol
242.35 K	597.2 J/K/mol
245.08 K	603.8 J/K/mol
247.81 K	610.3 J/K/mol
250 K	615.4 J/K/mol
250.54 K	617 J/K/mol
253.26 K	623.5 J/K/mol
255.99 K	630.5 J/K/mol
258.71 K	636.5 J/K/mol
260 K	639.5 J/K/mol
261.43 K	643.1 J/K/mol
264.15 K	650.3 J/K/mol
266.87 K	656.1 J/K/mol
269.6 K	662.2 J/K/mol
270 K	664 J/K/mol
272.32 K	669 J/K/mol
275.04 K	675.8 J/K/mol
277.75 K	683.5 J/K/mol
280 K	689.1 J/K/mol
280.46 K	690.8 J/K/mol
283.18 K	697.8 J/K/mol
285.9 K	703.7 J/K/mol
288.62 K	711.2 J/K/mol
290 K	714.3 J/K/mol
291.34 K	717.9 J/K/mol
294.06 K	724.7 J/K/mol
296.83 K	732.2 J/K/mol
298.15 K	734.7 J/K/mol
299.59 K	739 J/K/mol
300 K	739.3 J/K/mol
302.36 K	745.1 J/K/mol
305.06 K	750.5 J/K/mol
307.66 K	756.7 J/K/mol
310 K	763.8 J/K/mol
310.21 K	763.5 J/K/mol
312.71 K	769.8 J/K/mol
315.15 K	776 J/K/mol
317.53 K	781.5 J/K/mol
319.66 K	787.9 J/K/mol
320 K	787.8 J/K/mol
321.94 K	792.5 J/K/mol
324.16 K	798.1 J/K/mol
326.33 K	802.6 J/K/mol
328.44 K	808.3 J/K/mol
330 K	811.6 J/K/mol
330.51 K	813 J/K/mol
332.48 K	818.5 J/K/mol
334.44 K	823.2 J/K/mol
336.34 K	827.3 J/K/mol
338.2 K	831.4 J/K/mol
340 K	835.5 J/K/mol and 835.4 J/K/mol
341.76 K	839.5 J/K/mol
343.47 K	842.9 J/K/mol
345 K	846.6 J/K/mol
346.75 K	850.4 J/K/mol
348.1 K	853.8 J/K/mol
349.45 K	857 J/K/mol
350 K	859 J/K/mol
350.59 K	860.6 J/K/mol
352.03 K	864 J/K/mol
353.43 K	868 J/K/mol
360 K	882 J/K/mol
370 K	904 J/K/mol
380 K	926 J/K/mol
390 K	949 J/K/mol
400 K	972 J/K/mol
410 K	996 J/K/mol
420 K	1020 J/K/mol
430 K	1044 J/K/mol
440 K	1067 J/K/mol
450 K	1091 J/K/mol
460 K	1118 J/K/mol
470 K	1152 J/K/mol
480 K	1201 J/K/mol
490 K	1251 J/K/mol
498 K	1289 J/K/mol
